Converted amounts (≈) assume the structure as drawn. Read-outs that look alike come from different tables or passages of the source. Marks after values point to notes of the source that are not given here. Non-standard residues stand in square brackets, D forms with d. Residues, ends and D or L forms follow the SMILES beside them. PEG4000 = polyethylene glycol 4000, conjugated to the C-terminus; dPhe(3,4-Cl2) = N[C@H](Cc1ccc(Cl)c(Cl)c1)C(=O)O; 2Nal = N[C@@H](Cc1ccc2ccccc2c1)C(=O)O; d2Nal = N[C@H](Cc1ccc2ccccc2c1)C(=O)O
Assays:
[1] = test system: Escherichia coli ATCC 25922; test: Oral formulations on mice with systemic bacterial infection; format: in vivo, ICR mice; details: 1 mg/kg gavage, three times a day for 7 days, n = 10; for Average survival times (Days): observed for 14 d
How it was run: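 ICR mice of both sexes, 10 per group, infected i.p. with 0.2 mL E. coli ATCC 25922 at 1×10^7 CFU/mL. Compounds gavaged by body weight immediately after infection, three times daily for 7 days; deaths and survival time recorded over 14 d observation.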

[2] = test system: Staphylococcus aureus (NRS 384); test: microbe, parasite or virus in culture; format: cell-based
How it was run: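 CLSI broth microdilution with serial twofold dilutions gave MICs against S. aureus NRS 384, with 5 parallel replicates. Levofloxacin and the AMP Cbf-K16 served as positive controls.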

[3] = test system: Candida glabrata ATCC 15126; format: cell-based
How it was run: (§1)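 Peptides were tested against clinical bacterial and fungal strains by CLSI microdilution using a serial twofold dilution series, and the MIC was taken as the value. Replicates: 5, run in parallel.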

[4] = test system: Corynebacterium ATCC 7715; format: cell-based
How it was run: as §1

[5] = test system: Klebsiella pneumoniae ATCC 700603; format: cell-based
How it was run: as §1

[6] = test system: Salmonella typhimurium ATCC 14028; format: cell-based
How it was run: as §1

[7] = test system: Pseudomonas aeruginosa ATCC 27853; format: cell-based
How it was run: as §1

[8] = test system: Bacillus subtilis ATCC 6633; format: cell-based
How it was run: as §1

[9] = test system: Serratia marcescens ATCC 29021; format: cell-based
How it was run: as §1

[10] = test system: Staphylococcus aureus ATCC 25923; format: cell-based
How it was run: as §1

[11] = test system: Candida tropicalis ATCC 750; format: cell-based
How it was run: as §1

[12] = test system: Candida albicans ATCC MYA-2876; format: cell-based
How it was run: as §1

[13] = test system: Trichophyton ATCC MYA-4438; format: cell-based
How it was run: as §1

Candida krusei ATCC 6258 = format: cell-based
How it was run: as §1

Candida utilis ATCC 9950 = format: cell-based
How it was run: as §1

[14] = test system: Escherichia coli ATCC 25922; format: cell-based
How it was run: as §1

Enterococcus ATCC 29212 = format: cell-based
How it was run: as §1

[15] = test system: Staphylococcus aureus (NRS 384)
Protocol: Trypsin (250 U/mg, pH=8.0) and AMPs (LV-1 to LV-30) were mixed in a ratio of 1:10 (w/w) and added to a reaction buffer (0.2 M sodium phosphate, 1 mM CaCl2), pH 7.5), and then incubated at 37° C. for 3 h.

[16] = test system: Pseudomonas aeruginosa ATCC 27853; test: Injectable formulations on mice infected with peritonitis; format: in vivo, ICR mice; details: 1 mg/kg via tail vein, twice a day for 3 days, n = 10; for Average survival times (Days): observed for 14 d
How it was run: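 ICR mice of both sexes (10 per group) infected intraperitoneally with 0.2 mL P. aeruginosa ATCC 27853 at 1×10^9 CFU/mL. Injectable formulations dosed by body weight via tail vein twice daily for 3 days; deaths and survival time recorded over 14 d.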

Compound | Number of mice that died on each day after infection: day 4 [1] [Mouse] | Number of mice that died on each day after infection: day 5 [1] [Mouse] | Number of mice that died on each day after infection: day 6 [1] [Mouse] | Number of mice that died on each day after infection: day 7 [1] [Mouse] | Number of mice that died on each day after infection: day 8 [1] [Mouse] | Average survival times (Days) [1] | MIC Candida glabrata ATCC 15126 [3] [µg/mL] | MIC Corynebacterium ATCC 7715 [4] [µg/mL] | MIC Klebsiella pneumoniae ATCC 700603 [5] [µg/mL] | MIC Salmonella typhimurium ATCC 14028 [6] [µg/mL] | MIC Pseudomonas aeruginosa ATCC 27853 [7] [µg/mL] | MIC Bacillus subtilis ATCC 6633 [8] [µg/mL] | MIC Serratia marcescens ATCC 29021 [9] [µg/mL] | MIC Staphylococcus aureus ATCC 25923 [10] [µg/mL] | MIC Candida tropicalis ATCC 750 [11] [µg/mL] | MIC Candida albicans ATCC MYA-2876 [12] [µg/mL] | MIC Trichophyton ATCC MYA-4438 [13] [µg/mL] | MIC Candida krusei ATCC 6258 (Candida krusei ATCC 6258) [µg/mL] | MIC Candida utilis ATCC 9950 (Candida utilis ATCC 9950) [µg/mL] | MIC Escherichia coli ATCC 25922 [14] [µg/mL] | other results
CC(=O)N[C@H](CCCNC(=N)N)C(=O)N[C@H](CCCCN)C(=O)N[C@H](CC(C)C)C(=O)N[C@H](CC(C)C)C(=O)N[C@H](Cc1ccc(Cl)c(Cl)c1)C(=O)N[C@H](CCCCN)C(=O)N[C@H](CC(C)C)C(=O)N[C@H](CCCCN)C(=O)N[C@H](Cc1ccc(Cl)c(Cl)c1)C(=O)N[C@H](CCCCN)C(=O)N[C@H](CCCNC(=N)N)C(N)=O [LV-8] (Ac-[dR][dK][dL][dL][dPhe(3,4-Cl2)][dK][dL][dK][dPhe(3,4-Cl2)][dK][dR]-NH2) | 2 | 1 | 0 | 2 | 0 | 9.7** Days | 16 (≈ 9.66 µM) | 2 (≈ 1.21 µM) | 4 (≈ 2.42 µM) | 2 (≈ 1.21 µM) | 2 (≈ 1.21 µM) | 2 (≈ 1.21 µM) | 2 (≈ 1.21 µM) | 1 (≈ 0.604 µM) | 16 (≈ 9.66 µM) | 16 (≈ 9.66 µM) | 8 (≈ 4.83 µM) | 16 (≈ 9.66 µM) | 8 (≈ 4.83 µM) | 2 (≈ 1.21 µM) | MIC against Staphylococcus aureus (NRS 384) ([2]; NRS 384): 1 µg/mL (≈ 0.604 µM); MIC Enterococcus ATCC 29212 (Enterococcus ATCC 29212): 2 µg/mL (≈ 1.21 µM); Trypsin MIC ([15]; NRS 384, 3 h): 1 µg/mL; Number of mice that died on each day after infection: day 1 [16]: 1 Mouse; Number of mice that died on each day after infection: day 2 [16]: 1 Mouse; Number of mice that died on each day after infection: day 3 [16]: 0 Mouse; Number of mice that died on each day after infection: day 4 [16]: 1 Mouse; Number of mice that died on each day after infection: day 5 [16]: 1 Mouse; Average survival times (Days) [16]: 9.6*** Days
CC(=O)N[C@H](CCCNC(=N)N)C(=O)N[C@H](CCCCN)C(=O)N[C@H](CC(C)C)C(=O)N[C@H](CC(C)C)C(=O)N[C@H](Cc1ccc2ccccc2c1)C(=O)N[C@H](CCCNC(=N)N)C(=O)N[C@H](CC(C)C)C(=O)N[C@H](CCCCN)C(=O)N[C@H](Cc1ccccc1)C(=O)N[C@H](CCCNC(=N)N)C(=O)N[C@H](CCCCN)C(N)=O [LV-4] (Ac-[dR][dK][dL][dL][d2Nal][dR][dL][dK][dF][dR][dK]-NH2) | 0 | 1 | 2 | 2 | 1 | 9.5** Days | 8 (≈ 5.01 µM) | 2 (≈ 1.25 µM) | 4 (≈ 2.51 µM) | 2 (≈ 1.25 µM) | 2 (≈ 1.25 µM) | 4 (≈ 2.51 µM) | 2 (≈ 1.25 µM) | 1 (≈ 0.627 µM) | 16 (≈ 10 µM) | 8 (≈ 5.01 µM) | 8 (≈ 5.01 µM) | 16 (≈ 10 µM) | 8 (≈ 5.01 µM) | 2 (≈ 1.25 µM) | MIC against Staphylococcus aureus (NRS 384) ([2]; NRS 384): 1 µg/mL (≈ 0.627 µM); MIC Enterococcus ATCC 29212 (Enterococcus ATCC 29212): 2 µg/mL (≈ 1.25 µM); Trypsin MIC ([15]; NRS 384, 3 h): 1 µg/mL; Number of mice that died on each day after infection: day 1 [16]: 0 Mouse; Number of mice that died on each day after infection: day 2 [16]: 1 Mouse; Number of mice that died on each day after infection: day 3 [16]: 0 Mouse; Number of mice that died on each day after infection: day 4 [16]: 2 Mouse; Number of mice that died on each day after infection: day 5 [16]: 1 Mouse; Average survival times (Days) [16]: 9.9**** Days
Ac-RKLLXRLKXRK-PEG4000 [LV-30] (Ac-RKLL[2Nal]RLK[2Nal]RK-PEG4000) [polyethylene glycol 4000 conjugated to C-terminal; X=3-(2-naphthyl)-alanine] | 1 | 1 | 3 | 0 | 1 | 9.1** Days | 16 | 8 | 8 | 2 | 2 | 2 | 8 | 2 | 8 | 8 | 8 | 16 | 8 | 2 | MIC against Staphylococcus aureus (NRS 384) ([2]; Staphylococcus aureus (NRS 384)): 1 µg/mL; MIC Enterococcus ATCC 29212 (Enterococcus ATCC 29212): 4 µg/mL; Trypsin MIC ([15]; MIC vs Staphylococcus aureus (NRS 384) after trypsin treatment 1:10 (w/w), 37° C., 3 h): 1 µg/mL; Number of mice that died on each day after infection: day 1 [16]: 1 Mouse; Number of mice that died on each day after infection: day 2 [16]: 1 Mouse; Number of mice that died on each day after infection: day 3 [16]: 0 Mouse; Number of mice that died on each day after infection: day 4 [16]: 1 Mouse; Number of mice that died on each day after infection: day 5 [16]: 1 Mouse; Average survival times (Days) [16]: 9.6*** Days
CC(=O)N[C@H](CCCNC(=N)N)C(=O)N[C@H](CCCCN)C(=O)N[C@H](C)C(=O)N[C@H](C)C(=O)N[C@H](Cc1ccc2ccccc2c1)C(=O)N[C@H](CCCNC(=N)N)C(=O)N[C@H](C)C(=O)N[C@H](CCCCN)C(=O)N[C@H](Cc1ccc2ccccc2c1)C(=O)N[C@H](CCCNC(=N)N)C(=O)N[C@H](CCCCN)C(N)=O [LV-15] (Ac-[dR][dK][dA][dA][d2Nal][dR][dA][dK][d2Nal][dR][dK]-NH2) | 1 | 3 | 0 | 1 | 0 | 9.6** Days | 4 (≈ 2.63 µM) | 8 (≈ 5.26 µM) | 4 (≈ 2.63 µM) | 2 (≈ 1.32 µM) | 4 (≈ 2.63 µM) | 4 (≈ 2.63 µM) | 8 (≈ 5.26 µM) | 2 (≈ 1.32 µM) | 8 (≈ 5.26 µM) | 8 (≈ 5.26 µM) | 8 (≈ 5.26 µM) | 4 (≈ 2.63 µM) | 8 (≈ 5.26 µM) | 2 (≈ 1.32 µM) | MIC against Staphylococcus aureus (NRS 384) ([2]; NRS 384): 1 µg/mL (≈ 0.658 µM); MIC Enterococcus ATCC 29212 (Enterococcus ATCC 29212): 4 µg/mL (≈ 2.63 µM); Trypsin MIC ([15]; NRS 384, 3 h): 1 µg/mL; Number of mice that died on each day after infection: day 1 [16]: 1 Mouse; Number of mice that died on each day after infection: day 2 [16]: 2 Mouse; Number of mice that died on each day after infection: day 3 [16]: 0 Mouse; Number of mice that died on each day after infection: day 4 [16]: 2 Mouse; Number of mice that died on each day after infection: day 5 [16]: 0 Mouse; Average survival times (Days) [16]: 8.3** Days

— patent publication US20250304620A1, “ANTIMICROBIAL PEPTIDE AND APPLICATION THEREOF” (priority 2023, published 2025)
